Assay results: article PMC4973902, “Identification of Novel Smoothened Ligands Using Structure-Based Docking” (PLoS ONE, 2016)
Entries after “also recorded” stand apart in the source; their conditions may differ. Where two headings read alike, the source gives them in different places.

Key:
[1] = test system: Gli-Luciferase reporter in Ptch1-/- MEFs; assay: 8xGli-Luciferase reporter assay in Ptch1-/- MEFs; type: cell-based, mouse; settings: for inhibition at 30 µM / IC50: Mus musculus; for inhibition at 30 µM: compared to DMSO; for IC50: read-out: IC50 Gli-Luciferase assay (range, n); for Inhibition of Gli-Luciferase (yes/no): single-dose screen at 30 μM (vismodegib 100 nM)
Method: (§1) Antagonist candidates were tested using Ptch1^-/- reporter mouse embryonic fibroblasts (MEFs). In Ptch1^-/- cells, the Hh pathway is constitutively activated as a result of deletion of Patched-1, the Hedgehog receptor and a functional inhibitor of Smo. The reporter cells were engineered to express the 8XGli-Luciferase reporter that faithfully monitors levels of Gli-mediated transcriptional activity as a readout of Hedgehog signalling. Firefly Luciferase is therefore constitutively expressed in these cells and its expression is inhibited by Smo antagonists such as cyclopamine. In the initial test for activity, we screened the 21 docking hits at a dose of 30 μM. […] Their ability to repress the pathway was further confirmed by quantifying transcript levels of Gli1, a target gene of the Hedgehog pathway, using qPCR (Fig 1C and S1 Table).
Ptch1^-/- MEFs stably expressing the Gli-Luciferase reporter and constitutive Renilla Luciferase were used. The Gli-Luciferase reporter is a Firefly Luciferase reporter driven by 8xGli consensus binding site in its promoter, cloned in a lentiviral plasmid carrying a puromycin resistance for selection. For the assay, 5x10^4 cells/well were plated in 48-well plates. The next day, the confluent cells were serum-starved with plain DMEM for 24 h. Drugs and compounds were added to the indicated final concentration and incubated for 24 h, each condition in duplicate. For the assay, Promega Dual Glow reagents were used. Media was removed and cells were lysed in 50 μL Passive Lysis Buffer for 10 min. 10 μL of lysate was assayed in black plates with 10 μL of each substrate, in duplicate. Luminescence was measured with an EnVision 2100 (Perkin Elmer). Firefly Luciferase luminescence was divided by the Renilla Luciferase luminescence, then normalized to vehicle condition to obtain the fold change in reporter activity.

[2] = test system: Gli1 expression in Ptch1-/- MEFs; assay: qPCR of Gli1 expression in Ptch1-/- MEFs; type: cell-based, mouse; settings: for IC50: Mus musculus
Method: as §1
(§2) Ptch1^-/- MEFs or C3H10T1/2 SMO cells (overexpression of mouse Smo wt or mouse Smo D477H using a retroviral vector) were plated at a density of 2x10^5 cells/well in 12-well plates. The next day, the confluent cells were serum-starved with plain DMEM for 24 h before drugs and compounds were added to the indicated final concentration. RNA was extracted using Trizol (Life Technologies, 15596–018) after 24 h. 1 μg of RNA was DNase-treated (Life Technologies, 18047–019) before being reverse transcribed into cDNA (High-Capacity Reverse Transcription kit, Life Technologies, 4368813). Real-time quantitative PCR reactions were performed on an ABI 7900HT in 384-well plates containing 20 ng cDNA, using Power SYBR Green PCR Master Mix (Life Technologies, 4367660). Relative Gli1 mRNA levels were calculated using the comparative Ct method, normalized to Gapdh mRNA. Primers used were validated as previously described.

[3] = Aggregation counter-screens (DLS, centrifugation, unrelated enzymes), overall outcome; type: physicochemical; settings: enzyme counter-screens
Method: All the antagonists with low micromolar IC50 were counter-screened for colloidal aggregation, a common mechanism of artefactual activity in early ligand discovery. […] These observations highlight the importance of counter-screening for this artefactual mechanism of action when evaluating new Smoothened antagonists.
(§3) The assays were performed as always with the addition of a centrifugation step. The antagonists were diluted in media to their final concentration. Half the solution was used as standard treatment: the media in wells was replaced with the media containing the drugs. The other half of the solution was then centrifuged for 20 min at 21,000g. The supernatant was used to replace the media in the wells.
(§4) Compounds 13b, 19b, 20b, 25b, 27b, 32b, 37b, 40b and 45b were diluted with both filtered DMEM and KPi, with a final concentration of 1% DMSO. Measurements were made using a DynaPro Plate Reader II system (Wyatt Technology) with a 60 mW laser at ~830 nm in either 96-well or 384-well plates; this particular instrument had been modified by Wyatt Technology to have a larger laser beam width that is appropriate for detecting large colloidal particles.
Both DMEM and KPi were used as buffer.

mouse Smoothened = mouse Smoothened (Mus musculus, UniProt P56726); settings: for Binding (yes/no), BODIPY-cyclopamine displacement: HEK293 mSmo-mCherry
Method: Using a stable line enabling the inducible expression of Smo-mCherry, we tested whether well-behaved, non-aggregating antagonists can specifically displace BODIPY-cyclopamine bound to Smoothened using flow cytometry.
Left: average cell fluorescence was measured by flow cytometry and plotted against antagonist concentration. Representative curve are shown.
A 293 stable cell line expressing tetracycline-inducible mouse Smoothened with mCherry fused to its C-terminus was used for these experiments. Cells were grown to confluence in the presence of 1 μg/mL tetracycline for 24 h. Cells were then incubated with 10 nM BODIPY-Cyclopamine and compounds for 2 h at 37°C. For FACS, cells were first trypsinized, fixed with 4% paraformaldehyde for 20 min, washed with TBS + 0.1% Triton X-100 and then sorted (FACS). BODIPY fluorescence was measured on the FACS Fortessa and FACS data was analyzed with FlowJo software. BODIPY fluorescence in control HEK293 was used to set the background threshold. Mean fluorescence was plotted against the compound concentration to calculate its IC50. For microscopy, fixed cells were imaged. Live cells were washed with PBS before fixing.

Smo wt = molecular target: T1, Smo wt (Mus musculus, UniProt P56726); assay: Gli1 qPCR dose-response in C3H10T1/2 cells overexpressing Smo wt; type: cell-based; settings: read-out: inhibition of Smo WT (dose-response, Fig 7G)
T1 construct: expressed in transfected cells; host or cells: C3H10T1/2 cells, retroviral transduction
Text: (§5) Fig 7 Binding poses and inhibition of vismodegib-resistant Smo by 45b. (A) Side view of the complex of Smo structure (represented as purple surface, TM6 was cut) with LY2940680 in the orthosteric site (represented as light pink sticks). (B)-(F) Predicted binding modes against the Smo WT of compounds 3, 6, 44, 244 and 45b, respectively. LY2940680 is represented as light pink wires, the compounds as green sticks, hydrogen bonds as black dashed lines and important residues as sticks. […] C3H10T1/2 cells were transduced with retrovirus for the overexpression of Smo wt or Smo D477H. (H) Predicted binding modes of compound 45b against a model of D473H Smo.
as §2, with “1 μg of RNA was DNase-treated (Life Technologies, 18047–019) before being reverse transcribed into cDNA (High-Capacity Reverse Transcription kit, Life Technologies, 4368813).” left out, “Primers used were validated as previously described.” left out

[4] = molecular target: T2, mouse D477H mutant (equivalent to human D473H) of Smo (Mus musculus, UniProt P56726, D477H); assay: Gli1 qPCR dose-response in C3H10T1/2 cells overexpressing Smo D477H; type: cell-based
T2 construct: expressed in transfected cells; host or cells: C3H10T1/2 cells, retroviral transduction
Text: as §5
as §2, with “1 μg of RNA was DNase-treated (Life Technologies, 18047–019) before being reverse transcribed into cDNA (High-Capacity Reverse Transcription kit, Life Technologies, 4368813).” left out, “Primers used were validated as previously described.” left out

[5] = test system: TOPFLASH Wnt-ß-catenin reporter (Frizzled receptors); assay: TopFlash Wnt-ß-catenin reporter assay in HEK293T cells; settings: Wnt3a-conditioned media
Method: We used HEK293T TopFlash cells, expressing a luciferase reporter under the control of a ß–catenin-responsive LEF/TCF promoter.
The assay was carried out in HEK293T, as described [71].

[6] = Dynamic Light Scattering (DLS); type: physicochemical; settings: 1 μM
Method: as §4

Smoothened = molecular target: T3, Smoothened (Mus musculus, UniProt P56726); assay: Centrifugation counter screen of Smo antagonism; type: cell-based; settings: 20 min centrifugation; Gli-luciferase, Gli1 qPCR, bodipy-cyclopamine displacement
T3 construct: endogenous in cells; host or cells: Ptch1-/- MEFs with 8xGli-Luciferase reporter (inferred)
Method: as §3

Smo mutations at D473 = test system: Smo mutations at D473; set-up: method as in PMID 25008467; settings: cited from earlier work
D473H mutant of Smo = test system: D473H mutant of Smo; set-up: method as in PMID 19726788; settings: cited from earlier work
[7] = 24 h, read-out: IC50 Gli1 qPCR (range, n)

mouse Smoothened, sequence (P56726 33-793): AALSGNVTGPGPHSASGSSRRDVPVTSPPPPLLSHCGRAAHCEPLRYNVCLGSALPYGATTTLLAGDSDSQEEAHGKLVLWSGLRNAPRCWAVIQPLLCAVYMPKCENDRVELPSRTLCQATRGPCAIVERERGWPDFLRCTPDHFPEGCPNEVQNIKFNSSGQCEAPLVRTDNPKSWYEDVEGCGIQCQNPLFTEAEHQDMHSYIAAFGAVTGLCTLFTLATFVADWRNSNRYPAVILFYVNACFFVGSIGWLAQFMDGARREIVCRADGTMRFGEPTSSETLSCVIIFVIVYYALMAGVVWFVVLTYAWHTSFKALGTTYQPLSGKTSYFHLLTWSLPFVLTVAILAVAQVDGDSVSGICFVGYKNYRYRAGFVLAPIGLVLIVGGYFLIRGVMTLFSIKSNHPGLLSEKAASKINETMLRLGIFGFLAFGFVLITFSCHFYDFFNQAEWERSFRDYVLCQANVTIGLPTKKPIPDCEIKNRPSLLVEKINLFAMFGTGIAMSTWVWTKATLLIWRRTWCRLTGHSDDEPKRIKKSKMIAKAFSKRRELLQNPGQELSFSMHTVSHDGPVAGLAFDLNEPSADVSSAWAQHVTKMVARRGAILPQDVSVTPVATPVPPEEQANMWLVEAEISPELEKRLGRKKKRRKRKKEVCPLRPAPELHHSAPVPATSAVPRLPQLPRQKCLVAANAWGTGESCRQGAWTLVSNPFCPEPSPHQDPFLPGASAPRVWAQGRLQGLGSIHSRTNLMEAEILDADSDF
T3 sequence (P56726 33-793): as above
T2 sequence (P56726 33-793 D477H): as the sequence (P56726 33-793) above, with D445H counted along it
T1 sequence (P56726 33-793): as the sequence (P56726 33-793) above

| Compound | IC50 ([1]; 24 h) | Inhibition of Gli-Luciferase (yes/no) [1] | IC50 [2, 7] | outcome of aggregation counter-screens [3] | IC50 (mouse Smoothened) | inhibition at 30 µM [1] | Inhibition - Gli1 qPCR (yes/no) [2] | further results |
| --- | --- | --- | --- | --- | --- | --- | --- | --- |
| Cc1cccc(C(=O)Nc2cccc(NC(=O)Cc3cccnc3)c2)c1 [Compound 3] | 43 µM | yes | 94.8 µM | well-behaved antagonists | 166 µM | > 50% | yes | Binding (yes/no), BODIPY-cyclopamine displacement (mouse Smoothened): yes |
| c1ccc(CNc2cc(-c3ccc4c(c3)CNCC4)c3cc[nH]c3n2)nc1 [Compound 19b] | 22.4 µM | – | – | – | – | – | – | – |
| COc1cc(-c2cc(NCc3ccccn3)nc3[nH]ccc23)ccc1O [Compound 44] | 34.4 µM | yes | 14 µM | well-behaved antagonists | 15.6 µM | > 50% | yes | Binding (yes/no), BODIPY-cyclopamine displacement (mouse Smoothened): yes |
| CCC(C)n1ncn(-c2ccc(N3CCN(c4ccc(OCC5COC(Cn6cncn6)(c6ccc(Cl)cc6Cl)O5)cc4)CC3)cc2)c1=O (stereo not drawn) [itraconazole] | – | – | – | – | – | – | – | radius of colloidal particles by DLS ([6]; DMEM): 180 nm; effect of centrifugation on antagonism of Smo (Smoothened): disrupted by prior-centrifugation; also recorded: largely or entirely eliminated |
| CN(C(=O)c1ccc(F)cc1C(F)(F)F)C1CCN(c2nnc(-c3ccnn3C)c3ccccc23)CC1 [taladegib] | – | – | – | – | – | – | – | efficacy in the resistant mutants (Smo mutations at D473): unaffected or have minor drop in efficacy |
| CS(=O)(=O)c1ccc(C(=O)Nc2ccc(Cl)c(-c3ccccn3)c2)c(Cl)c1 [vismodegib, reference compound] | – | – | – | – | – | – | – | IC50 [1]: 0.0306 µM; IC50 ([2]; read-out: IC50 mGli1 qPCR (range, n)): 0.0018 µM; particle formation by DLS [6]: does not form particles; reduction of binding to Smo by D473H mutation (D473H mutant of Smo): 100 folds; activity on TOPFLASH Wnt-ß-catenin reporter ([5]; 100 nM): lack of inhibition |

Further compounds by falling IC50 ([1]; 24 h), results first:

| IC50 ([1]; 24 h) | Inhibition of Gli-Luciferase (yes/no) [1] | IC50 [2, 7] | outcome of aggregation counter-screens [3] | IC50 (mouse Smoothened) | Compound | inhibition at 30 µM [1] | Inhibition - Gli1 qPCR (yes/no) [2] | further results |
| --- | --- | --- | --- | --- | --- | --- | --- | --- |
| 20.8 µM | yes | 109 µM | well-behaved antagonists | – | CN(C)c1ccc(CNC(=O)Nc2ccc(-n3ccnc3)nc2)cn1 [Compound 6] | > 50% | yes | – |
| 10.9 µM | – | – | – | – | COc1ccccc1C(=O)Nc1cccc(NC(=O)Cc2cccnc2)c1 [Compound 13b] | – | – | – |
| 9.4 µM | – | 12.7 µM | well-behaved antagonists | – | Cc1cc2c(-c3cc(NCc4ccccn4)nc4[nH]ccc34)ncnc2s1 [Compound 32b] | – | – | – |
| 5.4 µM | – | 8.8 µM | well-behaved antagonists | – | NC(=O)c1cc(-c2cc(NCc3cccnc3)nc3[nH]ccc23)cs1 [Compound 37b] | – | – | – |
| 5.3 µM | yes | 11.3 µM | well-behaved antagonists | 58.3 µM | NC(=O)c1ccc(-c2cc(NCc3ccccn3)nc3[nH]ccc23)o1 [Compound 244] | > 50% | yes | Binding (yes/no), BODIPY-cyclopamine displacement (mouse Smoothened): yes |
| 3.1 µM | – | 5.3 µM | well-behaved antagonists | 12.7 µM | CSc1nc(C)cc(-c2cc(NCc3ccccn3)nc3[nH]ccc23)n1 [Compound 45b] | – | – | IC50 (Smo wt): 1.1 µM; IC50 ([4]; C3H10T1/2 cells overexpressing mouse Smo D477H, read-out: inhibition of Smo D473H mutant (dose-response, Fig 7G)): 3.1 µM; shift at D473H mutant relative to WT ([4]; D473H vs WT): 2.7 fold; activity on TOPFLASH Wnt-ß-catenin reporter ([5]; 10 μM, 24 hours co-treatment): no detectable activity; also recorded: lack of inhibition |
| 2.3 µM | – | 7.8 µM | well-behaved antagonists | – | NC(=O)c1cc(-c2cc(NCc3ccccn3)nc3[nH]ccc23)cs1 [Compound 25b] | – | – | – |
